Measured values: patent US20240041899A1, “SOLID PREPARATION” (ASKA Pharmaceutical Co., Ltd., priority 2020, published 2024)

Key:
[1] = system: lower urinary tract obstruction model of rats (male); assay: Test Example 2: urination function in lower urinary tract obstruction model of male rats; type: in vivo; details: oral once a day 14 days, 10 mg/kg, in comparison with Group C (dutasteride 0.5 mg/kg)
Description: A lower urinary tract obstruction model of rats was used as a test system. A test substance was orally administered to the lower urinary tract obstruction model repeatedly over 14 days to examine the action on the urination function in the lower urinary tract obstruction model. The lower urinary tract obstruction model is not a benign prostatic hyperplasia model with enlarged prostate.
More specifically, the rats (male, Crl:CD(SD), 8-week-old; Charles River Laboratories Japan, Inc.) were operated to form lower urinary tract obstruction and repeatedly received oral administration of the test substance at a frequency of once a day over 14 days. After the completion of the administration, each rat was subjected to bladder catheterization under anesthesia and cystometry under no anesthesia and was evaluated for the residual urine volume and the urination efficiency.
The test substances and the dosage in the test system (male rats with lower urinary tract obstruction) are as follows. • Solvent group (control group): 0.5 v/v % Polysorbate 80 solution, 10 mL/kg (n=8) • Group A: Compound A, 10 mg/kg (n=12) • Group C: Compound C (dutasteride), 0.5 mg/kg (n=11)

[2] = system: ovariectomized rats; assay: Test Example 5: antiprogesterone activity, uterine weight associated with rat deciduoma formation; type: in vivo
Procedure: For the compound A and the compound D (mifepristone), the antiprogesterone activity was measured. Specifically, a sex hormone and a test substance were repeatedly administered to ovariectomized rats as a test system to examine the antiprogesterone action (antiprogesterone activity) based on, as an index, the fluctuation of the uterine weight (the inhibitory action relative to the increase of the weight) associated with rat deciduoma formation.
More specifically, rats (female, Crl:CD(SD), 5-week-old: Charles River Laboratories Japan, Inc.) were subjected to ovariectomy, and from one (1) week after the ovariectomy, a high dose estrone of 5 μg/one animal was hypodermically administered to the rats once a day for three (3) days. From the day after one day rest period, the rats received, once a day over eight (8) days, hypodermic administration of a low dose estrone (1 μg/one animal), intramuscular administration of progesterone (6 mg/kg), and oral administration of a test substance. In the middle of the administration, on Day 4 of the start of administration, the rats were subjected to a stimulation treatment of decidualization reaction to the right uterus. The day after the final administration, the uterine weight (right uterine body) was measured (n=6). Group E was subjected to ovariectomy and a stimulation treatment of decidualization reaction but was not subjected to a hormone treatment.
Group E: rats with ovariectomy without hormone treatment 0.5 v/v % Polysorbate 80 solution, 10 mL/kg (n=6) • Solvent group (control group): 0.5 v/v % Polysorbate 80 solution, 10 mL/kg (n=6) • Group A3: Compound A, 3 mg/kg (n=6) • Group A10: Compound A, 10 mg/kg (n=6) • Group A30: Compound A, 30 mg/kg (n=6) • Group D: Compound D (mifepristone), 3 mg/kg (n=6)

Q: With `CC(=O)O[C@]1(C(C)=O)C[C@@H](O)[C@H]2[C@@H]3C=C(Cl)C4=CC(=O)OC[C@]4(C)[C@H]3CC[C@@]21C` [Compound A, 17α-acetoxy-6-chloro-15β-hydroxy-2-oxa-4,6-pregnadiene-3,20-dione] as the compound, how does the “urination function (the residual urine volume, the urination efficiency)” value [1] read?
A: strong improvement action

Q: And the inhibition at 3 mg/kg ([2]; Rattus norvegicus, 192 h, ovariectomized rats, estrone + progesterone, oral 3 mg/kg once a day 8 days, compared with the solvent group, read-out: inhibition rate (increase of uterine weight, deciduoma formation))?
A: 15%

Q: What about the inhibition at 10 mg/kg ([2]; Rattus norvegicus, 192 h, ovariectomized rats, estrone + progesterone, oral 10 mg/kg once a day 8 days, compared with the solvent group, read-out: inhibition rate (increase of uterine weight, deciduoma formation)) of the same compound?
A: 63%

Q: And the inhibition at 30 mg/kg ([2]; Rattus norvegicus, 192 h, ovariectomized rats, estrone + progesterone, oral 30 mg/kg once a day 8 days, compared with the solvent group, read-out: inhibition rate (increase of uterine weight, deciduoma formation))?
A: 83.3%

Q: And the antiprogesterone activity ([2]; ovariectomized rats, 3, 10, 30 mg/kg oral)?
A: has an antiprogesterone activity
